Measured values: ChEMBL document CHEMBL5226337, “Pyrazolopyrimidines as anticancer agents: A review on structural and target-based approaches” (Eur J Med Chem, 2021)
Converted amounts (≈) assume the structure as drawn.

Tests used:
Maver1 = assay: cells; settings: Homo sapiens, Maver1, 72 h
Description: Anticancer activity against human MAVER-1 cells assessed as inhibition of cell proliferation measured after 72 hrs by Cell Titer-Glo Luminescent

HCT-116 [1] = assay: Anticancer activity against human HCT-116 cells assessed as inhibition of cell proliferation measured after 48 hrs by MTT assay; type: functional, cell-based; settings: HCT-116, 48 h
HeLa [2] = assay: Anticancer activity against human HeLa cells assessed as inhibition of cell proliferation measured after 24 hrs by MTT assay; type: functional, cell-based
MCF7 [3] = assay: Anticancer activity against human MCF7 cells assessed as inhibition of cell proliferation measured after 24 hrs by MTT assay; type: functional, cell-based; settings: MCF7, 24 h
HepG2 [4] = assay: Anticancer activity against human HepG2 cells assessed as inhibition of cell proliferation measured after 16 hrs by MTT assay; type: functional, cell-based; settings: HepG2, 16 h
KB = assay: Anticancer activity against human KB cells assessed as inhibition of cell proliferation measured after 16 hrs by MTT assay; type: functional, cell-based
HT-29 = assay: Anticancer activity against human HT-29 cells assessed as inhibition of cell proliferation measured after 16 hrs by MTT assay; type: functional, cell-based; settings: HT-29, 16 h
HepG2 [5] = assay: Anticancer activity against human HepG2 cells assessed as inhibition of cell proliferation by MTT assay; type: functional, cell-based
KM12 = assay: Anticancer activity against human KM12 cells assessed as inhibition of cell proliferation measured after 72 hrs by MTT assay; type: functional, cell-based; settings: KM12, 72 h
[6] = Selectivity index, ratio of IC50 for cytotoxicity against FHC cells to IC50 for antiproliferative activity against KM12 cells; type: toxicity, cell-based; settings: human; read-out: Ratio IC50
[7] = biological target: Tyrosine-protein kinase BTK (Homo sapiens, UniProt Q06187); assay: Inhibition of human BTK using biotin as a substrate preincubated for 5 mins followed by substrate addition incubated for 30 mins in presence of ATP by fluorescence based assay
Raji = assay: Anticancer activity against human Raji cells assessed as inhibition of cell proliferation preincubated for 1 hr followed by compound addition measured after 1 hrs by Cell Titer-Glo assay; type: functional, cell-based
Ramos = assay: Anticancer activity against human Ramos cells assessed as inhibition of cell proliferation preincubated for 1 hr followed by compound addition measured after 1 hrs by Cell Titer-Glo assay; type: functional, cell-based
[8] = tested on: Panel NCI-60 (60 carcinoma cell lines); assay: Anticancer activity against human Panel NCI-60 (60 carcinoma cell lines) assessed as inhibition of cell proliferation; type: functional
MCF7 [9] = assay: Anticancer activity against human MCF7 cells assessed as inhibition of cell proliferation measured after 18 hrs by spectrophotometric analysis relative to control; type: functional
HCT-116 [10] = assay: Anticancer activity against human HCT-116 cells assessed as inhibition of cell proliferation measured after 18 hrs by spectrophotometric analysis relative to control; type: functional
[11] = biological target: Tyrosine-protein kinase JAK2 (Homo sapiens, UniProt O60674); assay: Inhibition of human JAK2 using biotin as a substrate preincubated for 5 mins followed by substrate addition incubated for 30 mins in presence of ATP by fluorescence based assay
MCF7 [12] = assay: Anticancer activity against human MCF7 cells assessed as inhibition of cell proliferation measured after 24 hrs by MTT based microplate ELISA reader analysis; type: functional; settings: MCF7, 24 h
[13] = Inhibition of KDM (unknown origin) incubated for 30 mins in presence of ATP by ELISA assay; set-up: species or system Homo sapiens
Z-138 = assay: Anticancer activity against human Z138 cells assessed as inhibition of cell proliferation measured after 72 hrs by Cell Titer-Glo Luminescent; type: functional, cell-based; settings: Z-138, 72 h
[14] = Anticancer activity against human MINO cells assessed as inhibition of cell proliferation measured after 72 hrs by Cell Titer-Glo Luminescent; type: functional, cell-based
JeKo-1 = assay: Anticancer activity against human JeKo-1 cells assessed as inhibition of cell proliferation measured after 72 hrs by Cell Titer-Glo Luminescent; type: functional, cell-based; settings: JeKo-1, 72 h
MCF7 [15] = assay: Anticancer activity against human MCF7 cells assessed as inhibition of cell proliferation measured after 48 hrs by MTT assay; type: functional, cell-based; settings: MCF7, 48 h
HepG2 [16] = assay: Anticancer activity against human HepG2 cells assessed as inhibition of cell proliferation measured after 72 hrs by SRB calorimetric assay; type: functional, cell-based; settings: HepG2, 72 h
MCF7 [17] = assay: Cell cycle arrest in human MCF7 cells assessed as accumulation at G2/M phase measured after 48 hrs by […] propidium iodide staining based flow cytometry analysis; type: functional; settings: MCF7, 48 h
[18] = biological target: Epidermal growth factor receptor (Homo sapiens, UniProt P00533); assay: Inhibition of EGFR (unknown origin) by EGFR Kinase Assay Kit method
[19] = biological target: cGMP-specific 3',5'-cyclic phosphodiesterase (Homo sapiens, UniProt O76074); assay: Inhibition of PDE5 (unknown origin)
HeLa [20] = assay: Anticancer activity against human HeLa cells assessed as inhibition of cell proliferation measured after 24 hrs by MTT based microplate ELISA reader analysis; type: functional
A549 = assay: Anticancer activity against human A549 cells assessed as inhibition of cell proliferation measured after 48 hrs by MTT assay based microtiter plate analysis; type: functional; settings: A549, 48 h

Sequence of Tyrosine-protein kinase JAK2 (O60674 whole entry): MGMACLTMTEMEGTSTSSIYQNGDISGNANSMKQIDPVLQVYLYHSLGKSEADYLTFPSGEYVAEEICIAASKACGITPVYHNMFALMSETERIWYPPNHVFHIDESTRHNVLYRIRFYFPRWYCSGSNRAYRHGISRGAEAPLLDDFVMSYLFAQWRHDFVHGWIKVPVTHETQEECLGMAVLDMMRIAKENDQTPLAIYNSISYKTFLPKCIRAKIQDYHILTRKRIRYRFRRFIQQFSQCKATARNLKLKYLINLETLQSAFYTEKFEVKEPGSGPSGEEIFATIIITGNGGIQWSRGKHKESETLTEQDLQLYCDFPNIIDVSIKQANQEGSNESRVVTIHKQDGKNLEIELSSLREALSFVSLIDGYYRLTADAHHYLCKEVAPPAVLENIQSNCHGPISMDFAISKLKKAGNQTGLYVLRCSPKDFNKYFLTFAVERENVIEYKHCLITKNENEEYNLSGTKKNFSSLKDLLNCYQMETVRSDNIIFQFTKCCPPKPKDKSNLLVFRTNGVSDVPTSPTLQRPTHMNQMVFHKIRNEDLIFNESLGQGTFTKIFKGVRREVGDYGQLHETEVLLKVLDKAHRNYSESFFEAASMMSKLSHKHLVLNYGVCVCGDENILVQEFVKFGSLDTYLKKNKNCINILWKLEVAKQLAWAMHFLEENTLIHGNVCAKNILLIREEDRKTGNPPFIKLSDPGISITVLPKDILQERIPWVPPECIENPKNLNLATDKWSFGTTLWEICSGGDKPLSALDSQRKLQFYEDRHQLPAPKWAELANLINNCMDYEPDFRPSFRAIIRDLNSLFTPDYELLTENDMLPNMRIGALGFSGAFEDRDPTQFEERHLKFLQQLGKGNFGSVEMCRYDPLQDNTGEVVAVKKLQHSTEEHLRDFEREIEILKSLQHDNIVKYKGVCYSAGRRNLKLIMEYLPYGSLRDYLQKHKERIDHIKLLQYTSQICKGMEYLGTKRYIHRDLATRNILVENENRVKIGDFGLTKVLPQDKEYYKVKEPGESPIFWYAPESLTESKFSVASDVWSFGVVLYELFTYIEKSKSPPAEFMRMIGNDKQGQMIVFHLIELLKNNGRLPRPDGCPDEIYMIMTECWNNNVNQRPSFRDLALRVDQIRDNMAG
Sequence of Epidermal growth factor receptor (P00533 whole entry): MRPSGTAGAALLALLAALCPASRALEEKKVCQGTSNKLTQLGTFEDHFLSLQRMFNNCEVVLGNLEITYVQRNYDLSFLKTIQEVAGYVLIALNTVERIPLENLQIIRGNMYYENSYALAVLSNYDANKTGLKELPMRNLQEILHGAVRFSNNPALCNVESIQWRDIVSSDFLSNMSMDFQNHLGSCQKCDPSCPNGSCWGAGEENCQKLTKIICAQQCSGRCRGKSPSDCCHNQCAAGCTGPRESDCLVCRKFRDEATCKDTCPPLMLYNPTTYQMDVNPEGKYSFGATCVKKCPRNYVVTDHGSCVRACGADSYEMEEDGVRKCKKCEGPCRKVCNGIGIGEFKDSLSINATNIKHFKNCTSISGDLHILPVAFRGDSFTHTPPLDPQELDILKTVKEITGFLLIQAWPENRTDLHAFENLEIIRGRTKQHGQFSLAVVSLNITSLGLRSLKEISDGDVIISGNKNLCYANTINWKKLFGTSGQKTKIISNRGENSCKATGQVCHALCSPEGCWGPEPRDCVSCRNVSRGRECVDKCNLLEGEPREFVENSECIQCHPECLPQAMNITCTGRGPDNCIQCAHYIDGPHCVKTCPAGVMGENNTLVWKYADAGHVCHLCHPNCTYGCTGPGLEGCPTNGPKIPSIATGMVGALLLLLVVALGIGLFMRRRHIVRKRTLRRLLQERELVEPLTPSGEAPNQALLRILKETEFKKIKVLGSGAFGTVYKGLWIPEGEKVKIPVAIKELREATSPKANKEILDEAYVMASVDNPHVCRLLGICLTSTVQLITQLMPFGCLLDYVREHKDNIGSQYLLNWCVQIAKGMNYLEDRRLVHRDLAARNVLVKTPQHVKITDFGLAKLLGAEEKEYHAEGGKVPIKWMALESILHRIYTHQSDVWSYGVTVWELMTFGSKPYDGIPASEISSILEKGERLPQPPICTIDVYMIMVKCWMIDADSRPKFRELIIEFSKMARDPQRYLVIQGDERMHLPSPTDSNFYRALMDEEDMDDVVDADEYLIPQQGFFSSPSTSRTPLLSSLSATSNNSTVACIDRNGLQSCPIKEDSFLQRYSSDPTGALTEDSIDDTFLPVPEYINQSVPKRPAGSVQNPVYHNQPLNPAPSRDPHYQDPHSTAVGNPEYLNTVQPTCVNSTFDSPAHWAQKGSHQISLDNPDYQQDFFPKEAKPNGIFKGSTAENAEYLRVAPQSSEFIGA
Sequence of Tyrosine-protein kinase BTK (Q06187 whole entry): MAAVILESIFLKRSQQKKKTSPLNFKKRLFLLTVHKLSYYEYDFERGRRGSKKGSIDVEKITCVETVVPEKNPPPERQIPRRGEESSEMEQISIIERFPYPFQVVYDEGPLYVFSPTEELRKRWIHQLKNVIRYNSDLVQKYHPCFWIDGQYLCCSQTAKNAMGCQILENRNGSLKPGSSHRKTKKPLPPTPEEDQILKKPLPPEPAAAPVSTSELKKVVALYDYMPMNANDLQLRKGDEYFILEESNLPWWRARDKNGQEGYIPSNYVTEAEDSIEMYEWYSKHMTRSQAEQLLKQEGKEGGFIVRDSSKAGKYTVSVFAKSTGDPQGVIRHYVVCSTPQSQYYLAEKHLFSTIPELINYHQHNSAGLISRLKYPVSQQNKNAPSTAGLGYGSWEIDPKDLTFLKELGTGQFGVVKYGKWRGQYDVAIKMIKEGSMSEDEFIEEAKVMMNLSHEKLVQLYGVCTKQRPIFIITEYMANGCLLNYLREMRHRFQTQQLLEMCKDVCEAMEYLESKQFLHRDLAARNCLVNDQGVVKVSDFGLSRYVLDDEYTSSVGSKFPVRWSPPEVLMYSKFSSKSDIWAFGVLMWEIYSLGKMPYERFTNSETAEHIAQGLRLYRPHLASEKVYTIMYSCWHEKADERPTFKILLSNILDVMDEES

In the case of `Nc1ncnc2c1c(-c1ccc(Oc3ccccc3)nc1)nn2C1CCCN(C(=O)CCl)C1` (centres undefined), the IC50 (Maver1) is reported as < 1 µM.

`CCNc1nn2c(-c3ccccc3)cc(=O)[nH]c2c1C(=O)Nc1ccc([N+](=O)[O-])cc1` gave an IC50 (HCT-116 [1]) of 1.51 µM.

`Nc1nc(Cl)c2cnn(Cc3ccc(Br)cc3F)c2n1` gave an IC50 (HeLa [2]) of 22.4 µM and an IC50 (MCF7 [3]) of 13.9 µM.

In the case of `CCOC(=O)C1=C(C)n2nc(CC#N)c(C#N)c2NC1c1ccccc1` (centres undefined), the IC50 (HepG2 [4]) is reported as 4.41 µM, the IC50 (KB) is reported as 7.58 µM and the IC50 (HT-29) is reported as 8.12 µM.

Molecule `CCOC(=O)C1=C(C)n2nc(CC#N)c(C#N)c2NC1c1ccc(N(C)C)cc1` (centres undefined) has an IC50 (HepG2 [4]) of 9.41 µM, an IC50 (KB) of 8.31 µM and an IC50 (HT-29) of 9.23 µM.

For `CSc1c(C#N)c(N)nc2c(/N=N/N3C(=O)c4ccccc4C3=O)c(O)nn12`, the IC50 (HeLa [2]) was 5.57 µM, the IC50 (MCF7 [3]) was 4.17 µM and the IC50 (HepG2 [5]) was 5.6 µg/mL (≈ 14.2 µM).

In the case of `CCOC(=O)C1=C(C)n2nc(CC#N)c(C#N)c2NC1c1cc(Br)ccc1O` (centres undefined), the IC50 (HepG2 [4]) is reported as 9.64 µM, the IC50 (KB) is reported as 6.94 µM and the IC50 (HT-29) is reported as 5.62 µM.

`CSc1nc(-c2ccco2)c2c(N)n[nH]c2n1` showed an IC50 (KM12) of 1.73 µM and a selectivity ratio [6] of 18.8.

Work on `C=CC(=O)N1CCCC(N2NC(c3cc(C(C)(C)O)n(C)n3)c3c(N)ncnc32)C1` (centres undefined) yielded an IC50 [7] of 0.00795 µM, an IC50 (Raji) of 1.8 µM and an IC50 (Ramos) of 8.91 µM.

`Nc1ncnc2c1c(Cc1c[nH]c3ccccc13)nn2CC1CCNCC1` showed a GI50 [8] of 0.019 µM.

With `Cc1nn(-c2ccccc2)c2nc(C)n(Cc3cn(-c4ccc(Cl)cc4)nn3)c(=O)c12` the “inhibition (INH)” value (MCF7 [9]) was 75.4% and the “inhibition (INH)” value (HCT-116 [10]) was 75.4%.

With `Cn1nc(C2NN(C3CCCN(C(=O)CC#N)C3)c3ncnc(N)c32)cc1C(C)(C)O` (centres undefined) the IC50 [11] was 0.008 µM.

`C=CC(=O)N1CCC(N2NC(c3cc(C(C)(C)O)n(C)n3)c3c(N)ncnc32)C1` (centres undefined) showed an IC50 [11] of 0.0072 µM.

`N#Cc1c(-c2ccccc2)nn2c(-c3cccc4ccccc34)ccnc12` showed an IC50 (MCF7 [12]) of 3 µM.

For `Cc1cc(=O)n2nc(CC#N)c(C#N)c2[nH]1`, the IC50 [13] was 4.05 µM.

In the case of `O=C(NCc1cc(C(F)(F)F)cc(C(F)(F)F)c1)NC1CCN(c2ncnc3[nH]ncc23)CC1`, the IC50 (Z-138) is reported as < 1 µM, the IC50 [14] is reported as < 1 µM and the IC50 (JeKo-1) is reported as < 1 µM.

`CC1=CC(C)Nc2c(C(=O)Nc3c(C)cccc3C)c(Nc3ccccc3)nn21` (centres undefined) showed an IC50 (MCF7 [15]) of 7.68 µM.

For `Cn1nc(C2NN(C3CCCN(C(=O)CC#N)C3)c3ncnc(N)c32)cc1C=O` (centres undefined), the IC50 [11] was 0.0097 µM.

Work on `Cc1cc(=O)n2nc(/C(C#N)=C\c3ccco3)c(C#N)c2[nH]1` yielded an IC50 [13] of 1.91 µM.

Molecule `CSc1nc(-c2cccs2)c2c(N)n[nH]c2n1` has an IC50 (KM12) of 1.21 µM and a selectivity ratio [6] of 35.5.

With `COc1ccc(C2c3c(-c4ccccc4)n[nH]c3Nc3[nH]c(=S)[nH]c(=S)c32)cc1` (centres undefined) the IC50 (HepG2 [16]) was 9.2 µM.

For `COc1cc(/C=C(/C#N)c2nn3c(=O)cc(C)[nH]c3c2C#N)ccc1O`, the IC50 (MCF7 [17]) was 1.91 µM and the IC50 [13] was 2.31 µM.

For `COc1nc2ccccc2cc1-c1nc2c(cnn2-c2ccc(Br)cc2)c(=O)[nH]1`, the IC50 (HeLa [2]) was 8.72 µM, the IC50 [18] was 5.83 µM and the IC50 (MCF7 [3]) was 6.56 µM. The IC50 [19] was 1.57 µM.

In the case of `COc1ccc(-c2c(C#N)cnc3c(C#N)c(-c4ccccc4)nn23)cc1`, the IC50 (HeLa [20]) is reported as 7.8 µM.

In the case of `COc1cccc2c1C(=O)c1c(O)c3c(c(O)c1C2=O)C[C@@](O)(C(=O)CO)C[C@@H]3O[C@H]1C[C@H](N)[C@H](O)[C@H](C)O1` [DOXORUBICIN], the IC50 (MCF7 [12]) is reported as 5.9 µM and the IC50 (HeLa [20]) is reported as 8.1 µM.

`C#Cc1cccc(Nc2ncnc3cc(OCCOC)c(OCCOC)cc23)c1` [ERLOTINIB] showed an IC50 (A549) of 11.7 µM.

Work on `O=c1[nH]cc(F)c(=O)[nH]1` [FLUOROURACIL] yielded an IC50 (KM12) of 12.3 µM and a selectivity ratio [6] of 1.93.
